Data published in patent US11220504B2, “Pyrrolo[3,2-d] pyrimidine derivatives for the treatment of viral infections and other diseases” (JANSSEN SCIENCES IRELAND UNLIMITED COMPANY, priority 2012, dated 2022).

What was measured:
[1] = target: T1, human TLR8 (Homo sapiens, UniProt Q9NR97); experiment: TLR8 cellular reporter assay (HEK293, NFκB-luc); assay type: cell-based; settings: HEK293 cells transfected with CMV-TLR8 and NFκB-luc, 6 hours incubation; lowest effective concentration
T1 construct: expressed in transfected cells; host or cells: HEK293 cells, transient transfection with TLR8 plasmid and NFκB-luc plasmid
T1 sequence (Q9NR97 27-1041): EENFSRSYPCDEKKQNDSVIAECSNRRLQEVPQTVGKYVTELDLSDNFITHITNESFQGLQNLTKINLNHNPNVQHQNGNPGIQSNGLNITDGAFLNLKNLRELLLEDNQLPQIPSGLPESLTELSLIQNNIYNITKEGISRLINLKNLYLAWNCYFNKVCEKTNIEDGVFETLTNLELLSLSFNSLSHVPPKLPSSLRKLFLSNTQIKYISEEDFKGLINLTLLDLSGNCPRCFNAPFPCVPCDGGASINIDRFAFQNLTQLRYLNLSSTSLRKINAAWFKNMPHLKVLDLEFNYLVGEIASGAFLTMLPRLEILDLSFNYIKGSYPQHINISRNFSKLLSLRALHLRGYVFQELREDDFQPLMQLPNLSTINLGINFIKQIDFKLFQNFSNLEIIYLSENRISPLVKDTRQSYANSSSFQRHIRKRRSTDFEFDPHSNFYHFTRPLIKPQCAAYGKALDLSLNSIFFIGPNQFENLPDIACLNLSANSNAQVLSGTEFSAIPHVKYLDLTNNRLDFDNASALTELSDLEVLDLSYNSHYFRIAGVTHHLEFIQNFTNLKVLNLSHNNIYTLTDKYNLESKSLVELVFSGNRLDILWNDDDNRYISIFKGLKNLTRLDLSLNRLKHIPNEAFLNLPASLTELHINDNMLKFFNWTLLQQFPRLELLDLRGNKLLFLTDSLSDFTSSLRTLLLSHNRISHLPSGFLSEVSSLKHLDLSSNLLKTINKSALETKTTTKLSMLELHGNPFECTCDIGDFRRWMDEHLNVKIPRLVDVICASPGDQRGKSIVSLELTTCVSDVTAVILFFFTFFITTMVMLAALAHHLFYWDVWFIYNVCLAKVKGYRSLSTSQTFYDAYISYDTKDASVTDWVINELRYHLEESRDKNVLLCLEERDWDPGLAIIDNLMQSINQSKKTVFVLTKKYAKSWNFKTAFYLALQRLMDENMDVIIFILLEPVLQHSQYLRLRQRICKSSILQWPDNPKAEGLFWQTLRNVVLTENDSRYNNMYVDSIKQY
Method in brief: (§1)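 HEK293 cells transiently transfected with receptor expression vector plus NFκB-luciferase reporter, exposed to compound (added in 4% DMSO) for 6 hours at 37° C, 5% CO2. Luciferase activity measured by luminescence; dose-response curves from quadruplicate measurements.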

[2] = system: interferon-stimulated responsive elements (ISRE); experiment: Activation of ISRE promoter elements by conditioned media from PBMC (HEK-ISREluc); assay type: cell-based, human; settings: conditioned media from PBMC transferred to HEK-ISREluc cells, 24 hours, lowest effective concentration; for minimal effective concentration: Homo sapiens, read-out: PBMC LEC
Method in brief: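 Human PBMCs (≥2 donors, RPMI + 10% human AB serum, 2×10^5 cells/well) incubated overnight with compound; supernatant transferred to HEK293 cells stably carrying pISRE-Luc for 24 h, then luciferase read. LEC = compound concentration on PBMCs giving luciferase signal at least two-fold above assay SD; recombinant IFN-α-2a standard.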

[3] = target: T2, human TLR7 (Homo sapiens, UniProt Q9NYK1); experiment: TLR7 cellular reporter assay (HEK293, NFκB-luc); assay type: cell-based; settings: HEK293 cells transfected with CMV-TLR7 and NFκB-luc, 6 hours incubation; lowest effective concentration
T2 construct: expressed in transfected cells; host or cells: HEK293 cells, transient transfection with CMV-TLR7 plasmid and NFκB-luc plasmid
T2 sequence (Q9NYK1 27-1049): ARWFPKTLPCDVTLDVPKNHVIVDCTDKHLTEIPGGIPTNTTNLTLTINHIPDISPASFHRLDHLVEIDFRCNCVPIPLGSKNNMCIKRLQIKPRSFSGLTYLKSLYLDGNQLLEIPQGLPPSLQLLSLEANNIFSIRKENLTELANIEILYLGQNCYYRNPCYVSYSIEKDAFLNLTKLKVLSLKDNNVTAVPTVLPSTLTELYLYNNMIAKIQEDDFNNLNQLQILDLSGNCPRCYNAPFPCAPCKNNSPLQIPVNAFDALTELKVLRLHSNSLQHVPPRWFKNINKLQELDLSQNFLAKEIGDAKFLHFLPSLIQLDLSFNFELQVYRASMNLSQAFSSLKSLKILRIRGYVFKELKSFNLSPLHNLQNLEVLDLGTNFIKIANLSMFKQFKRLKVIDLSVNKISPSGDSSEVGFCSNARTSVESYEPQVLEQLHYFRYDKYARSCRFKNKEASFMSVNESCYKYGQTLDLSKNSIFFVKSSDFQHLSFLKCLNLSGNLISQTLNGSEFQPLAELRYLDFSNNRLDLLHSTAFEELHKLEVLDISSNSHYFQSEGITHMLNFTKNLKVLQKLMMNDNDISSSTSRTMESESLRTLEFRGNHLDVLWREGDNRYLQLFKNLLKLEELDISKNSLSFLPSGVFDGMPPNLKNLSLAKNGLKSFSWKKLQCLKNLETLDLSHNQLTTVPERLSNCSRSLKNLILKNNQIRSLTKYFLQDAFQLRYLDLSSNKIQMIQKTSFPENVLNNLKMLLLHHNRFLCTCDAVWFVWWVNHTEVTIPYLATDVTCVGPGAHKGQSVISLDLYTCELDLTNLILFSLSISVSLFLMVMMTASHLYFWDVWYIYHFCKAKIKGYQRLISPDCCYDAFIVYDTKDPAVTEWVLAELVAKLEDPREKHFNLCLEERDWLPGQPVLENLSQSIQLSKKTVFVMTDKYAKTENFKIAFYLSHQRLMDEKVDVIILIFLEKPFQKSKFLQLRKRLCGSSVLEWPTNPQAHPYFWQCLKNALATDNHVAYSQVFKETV
Method in brief: as §1

Row | Structure (SMILES) | TLR8 LEC [1] [µM] | minimal effective concentration [2] [µM] | TLR7 LEC [3] [µM] | PBMC LEC [2] [µM]
1 | CCCCNc1nc(N)nc2ccn(Cc3cc4ccccc4cn3)c12 [Compound 50] | >25 | 0.13 | 1.01 | –
2 | CC(C)CCNc1nc(N)nc2ccn(Cc3ccccc3)c12 [Compound 51] | >25 | 0.59 | 5.14 | –
3 | CCCCNc1nc(N)nc2ccn(CC3CCCCC3)c12 [Compound 52] | >25 | 0.09 | 0.12 | –
4 | CCCCNc1nc(N)nc2ccn(CC3CC3)c12 [Compound 53] | >25 | 0.07 | 0.38 | –
5 | CCCCNc1nc(N)nc2c(C)cn(Cc3ccccc3)c12 [Compound 54] | >25 | 0.9 | 1.68 | –
6 | CCCCNc1nc(N)nc2ccn(Cc3ncccn3)c12 [Compound 56] | 17.5 | 0.07 | 0.99 | –
7 | CCCCNc1nc(N)nc2c(C)cn(Cc3ccccc3)c12 [Compound 58] | >25 | – | 0.24 | 0.90
8 | Nc1nc(NCc2nccs2)c2c(ccn2Cc2ccccc2)n1 [Compound 60] | >25 | 0.33 | 0.39 | –
9 | Nc1nc(NCc2ccccn2)c2c(ccn2Cc2ccccc2)n1 [Compound 61] | >25 | 1.95 | 1.01 | –
10 | CCCCNc1nc(N)nc2ccn(CC3CCC3)c12 [Compound 62] | 0.9934 | 0.06 | 0.06 | –
11 | CCCCNc1nc(N)nc2cc(C)n(Cc3ccccc3)c12 [Compound 63] | >25 | 0.18 | 0.67 | –
12 | CCCCNc1nc(N)nc2ccn(Cc3nccc4ccccc34)c12 [Compound 65] | >25 | 0.08 | 0.1687 | –
13 | CCCCNc1nc(N)nc2ccn(CCn3cccc3)c12 [Compound 66] | 3.96 | 0.91 | 2.57 | –
14 | CCCCNc1nc(N)nc2ccn(CCN3CCOCC3)c12 [Compound 67] | 6.71 | 0.04 | 0.056 | –
15 | CCCCNc1nc(N)nc2ccn(Cc3ccccc3OC)c12 [Compound 69] | 0.71 | 0.002 | 0.004 | –
16 | CCCCNc1nc(N)nc2ccn(CC3CCCO3)c12 (stereo not drawn) [Compound 71] | 4.68 | 0.24 | 0.32 | –
17 | CCCCNc1nc(N)nc2ccn(Cc3cccs3)c12 [Compound 73] | >25 | 0.13 | 0.28 | –
18 | CCCC(C)Nc1nc(N)nc2ccn(Cc3ccccc3F)c12 (stereo not drawn) [Compound 74] | >25 | 0.04 | 0.10 | –
19 | CCCC(C)Nc1nc(N)nc2ccn(Cc3ccc(OC)cc3)c12 (stereo not drawn) [Compound 75] | >25 | 0.04 | 0.04 | –
20 | CCCC[C@@H](CCO)Nc1nc(N)nc2ccn(Cc3ccccc3F)c12 [Compound 76] | 4.09 | 0.007 | 0.01 | –
21 | CCCC[C@@H](CCO)Nc1nc(N)nc2ccn(Cc3ccc(OC)cc3)c12 [Compound 77] | 2.62 | 0.002 | 0.008 | –
22 | CCCC[C@@H](CCO)Nc1nc(N)nc2ccn(Cc3ccccc3OC)c12 [Compound 78] | 0.5577 | < 0.0004 | 0.0004 | –
23 | CCCC(C)Nc1nc(N)nc2ccn(Cc3ccccc3OC)c12 (stereo not drawn) [Compound 79] | 0.94 | 0.001 | 0.004 | –
24 | CCC[C@@H](CCO)Nc1nc(N)nc2ccn(Cc3ccccc3OC)c12 [Compound 80] | 0.689 | < 0.0004 | <0.0006 | –
25 | CCC[C@@H](CCO)Nc1nc(N)nc2ccn(Cc3ccccc3F)c12 [Compound 81] | 22.02 | 0.002 | 0.01 | –
26 | CCC[C@@H](CCO)Nc1nc(N)nc2ccn(CC3CCC3)c12 [Compound 82] | 0.57 | 0.01 | 0.07 | –
27 | CCCCn1ccc2nc(N)nc(NCc3ccccc3)c21 [Compound 83] | >25 | 2.3 | 1.57 | –
28 | CCCC[C@@H](CCO)Nc1nc(N)nc2ccn(CC3CCC3)c12 [Compound 84] | 1.14 | 0.01 | 0.04 | –
